Patent publication US20090305954A1, “HISTIDINE-CONTAINING DIASTEREOMERIC PEPTIDES AND USES THEREOF” (Yeda Research and Development Co. Ltd., priority 2005, published 2009)
≈ marks a conversion by molar mass, not a printed value. Where two headings read alike, the source gives them in different places. Square brackets hold non-standard residues; d marks the D form. Peptide text beside a SMILES is read from it.

How the values were obtained:
[1] = system: Murine Lewis lung carcinoma (LLC) cell line; assay: XTT proliferation (cytotoxicity) assay, LLC; assay type: cell-based
Experimental: (§1) The CL1 human prostate carcinoma (PC) cell line is an androgen-independent (AI) subclone of LNCaP cell line, which was generated by culturing androgen-dependent (AD) LNCaP cells in charcoal-stripped, […], as described (Patel et al. 2000). 22RV1 human PC cells are AI sub-clones of the AD prostatic adenocarcinoma CWR22 xenograft (Sramkoski et al. 1999). CL1 and 22RV1 (ATCC, USA) were grown in RPMI-1640 supplemented with 10% FCS (Biological Industries, Beit Haemek, Israel). PC3 and DU145 are androgen-insensitive (AI) (non-responsive), invasive human prostate cancer cell lines. NIH-3T3 mouse fibroblast cell lines (ATCC, USA) were grown in DMEM supplemented with 10% BS. Murine Lewis lung carcinoma (LLC) cell lines were also grown in DMEM medium supplemented with 10% fetal calf serum and antibiotics under the same conditions as above.
(§2) The anticancer activity of the diastereomers 1, 5 and 11-16, 36-39, 42 and 44 was examined against human CL1 prostate cancer, murine LLC (Lewis lung carcinoma), DU 145 and PC3 cell lines. The cell selectivity of the diastereomeric peptides was also studied by examining their effect on NIH-3T3 normal mouse fibroblasts cell line.
(§3) A 96-well plate (Falcon) was used for the XTT proliferation assay. Cancer cells were grown for 24 hours (day 1) in RPMI-1640 medium ([…] cells/100 μl for LLC, CL1, 22RVI, DU 145 and PC3, respectively) supplemented with 10% fetal calf serum and antibiotics, at 37° C., in humidified atmosphere at 5% CO2 and 95% air, resulting in growth medium pH of 7.4. NIH-3T3 fibroblast cells (1×10^4 cells/100 μl) were grown in DMEM medium supplemented with 10% bovine calf serum and antibiotics under the same conditions as described above for the cancerous cells. Wells in the last two rows served as blanks (medium only, for measuring the background color of the medium) and 100% survival controls (cells and medium only without treatment), respectively.
(§4) In day 2, the peptides were dissolved in sterile PBS to a concentration of 200 μM (or 500 μM). The medium in the assay wells was replaced with 100 μl serum free medium. For the assays at pH 6, the medium was initially concentrated (×5 or ×10) and then diluted with double distilled water and addition of sodium carbonate. Before reaching the correct dilution, the medium was adjusted to pH 6 and then more water was added to reach the final dilution. The cells were grown in physiological pH, and the acidic pH was used only during the 24 hours incubation with the peptides. A sign for the correct acidity was a light yellow color of the medium. In line A of the plate, 160 μl of serum free medium was added, if the initial peptide concentration was 500 μM.
(§5) Peptide solutions, 100 μl (or 40 μl) were added to each assay well in line A, such that the final concentration of the peptide was […] and the volume 200 μl. The medium in the wells was mixed with multichannel pipette 5 times and 100 μl of it were transferred to the next row of wells (line B), to give a peptide concentration of 50 μM. The double dilution of the peptides continued downstream the plate in the same manner. The plates were then incubated for 24 h.
(§6) In day 3, XTT reaction solution was prepared by adding to 100 μl aliquots of activation solution (sodium 3′-[1-(phenyl-aminocarbonyl)-3,4-tetrazolium]-bis(4-methoxy-6-nitro) benzene sulfonic acid hydrate and N-methyl dibenzopyrazine methyl sulfate; mixed in a proportion of 50:1) (protected from light and kept in −20° C.), the substrate. 50 μl of XTT reaction solution were added to each well and the plates were incubated for 2 hours (37° C. and 5% CO2+95% air. In cases the incubation was not enough for the creation of the color, it was extended for up to 24 hours). The optical density was read at wavelength of 450 nm in an ELISA plate reader. Cell viability was determined relative to the control and final results were recorded. The results were confirmed using replications in at least three independent experiments. […]

[2] = system: CL1 human prostate carcinoma cell line; assay: XTT proliferation (cytotoxicity) assay, CL1; assay type: cell-based
Experimental: as §1, §2, §3, §4, §5, §6

[3] = system: DU145 human prostate cancer cell line; assay: XTT proliferation (cytotoxicity) assay, DU145; assay type: cell-based
Experimental: as §1, §2, §3, §4, §5, §6

[4] = system: MDA-MB-231 breast tumor metastases in lymph nodes and lungs; assay: Inhibition of formation of lung and lymph node metastases derived from breast cancer; assay type: in vivo, SCID/NCr mice
Excerpt: Monitoring of solid metastases derived for breast tumor was done by in vivo fluorescence using IVIS as described above in (iii). At the end of the treatment (day 38), the mice were killed, and the lungs and lymph nodes were removed and monitored for fluorescence of metastases derived from the breast cancer. For metastases quantification, the lungs and right lymph nodes were excised and fixed in 4% buffered formaldehyde. Paraffin-embedded 5-μm sections were stained with H&E. The percentage of metastatic cell area of total section area was calculated using the Image-Pro plus 4.1 software. The dissected lungs and lymph nodes were analyzed by histology. […] Metastasis quantification was done according to areas from three different sections of each organ (P<0.005).

[5] = system: 22RV1 human PC cells; assay: XTT proliferation (cytotoxicity) assay, 22RV1; assay type: cell-based
Experimental: as §1, §3, §4, §5
In day 3, XTT reaction solution was prepared by adding to 100 μl aliquots of activation solution (sodium 3′-[1-(phenyl-aminocarbonyl)-3,4-tetrazolium]-bis(4-methoxy-6-nitro) benzene sulfonic acid hydrate and N-methyl dibenzopyrazine methyl sulfate; mixed in a proportion of 50:1) (protected from light and kept in −20° C.), the substrate. 50 μl of XTT reaction solution were added to each well and the plates were incubated for 2 hours (37° C. and 5% CO2+95% air. In cases the incubation was not enough for the creation of the color, it was extended for up to 24 hours). The optical density was read at wavelength of 450 nm in an ELISA plate reader. Cell viability was determined relative to the control and final results were recorded. The results were confirmed using replications in at least three independent experiments. The LC50 for each peptide was obtained from the curve of cell viability versus concentration of peptide and taken from the concentration at which cell viability was 50%. The data shown in Table 1 are for only one experiment, but representative of all replications.

[6] = system: PC3 human prostate cancer cell line; assay: XTT proliferation (cytotoxicity) assay, PC3; assay type: cell-based; conditions: PC3, pH 7.4, 24 h
Experimental: as §1, §2
A 96-well plate (Falcon) was used for the XTT proliferation assay. Cancer cells were grown for 24 hours (day 1) in RPMI-1640 medium (5×10^3, 7×10^3, 1×10^4 and 7×10^3 cells/100 μl for LLC, CL1, 22RVI, DU 145 and PC3, respectively) supplemented with 10% fetal calf serum and antibiotics, at 37° C., in humidified atmosphere at 5% CO2 and 95% air, resulting in growth medium pH of 7.4. […]
In day 3, XTT reaction solution was prepared by adding to 100 μl aliquots of activation solution (sodium 3′-[1-(phenyl-aminocarbonyl)-3,4-tetrazolium]-bis(4-methoxy-6-nitro) benzene sulfonic acid hydrate and N-methyl dibenzopyrazine methyl sulfate; mixed in a proportion of 50:1) (protected from light and kept in −20° C.), the substrate. […] The optical density was read at wavelength of 450 nm in an ELISA plate reader. Cell viability was determined relative to the control and final results were recorded. […]

[7] = XTT proliferation (cytotoxicity) assay, normal fibroblasts; assay type: cell-based, mouse; conditions: mouse, NIH-3T3 normal mouse fibroblasts, read-out: Lethal Concentration (LC50)
Experimental: as §1, §2, §3, §4, §5, §6

SMILES: CC(C)C[C@H](NC(=O)[C@H](CC(C)C)NC(=O)[C@@H](CCCCN)NC(=O)[C@H](CC(C)C)NC(=O)[C@H](CC(C)C)NC(=O)[C@H](Cc1c[nH]cn1)NC(=O)[C@@H](CCCCN)NC(=O)[C@@H](CC(C)C)NC(=O)[C@H](CC(C)C)NC(=O)[C@@H](CCCCN)NC(=O)[C@H](Cc1c[nH]cn1)NC(=O)[C@H](CC(C)C)NC(=O)[C@@H](CC(C)C)NC(=O)[C@H](CCCCN)NC(=O)[C@@H](N)CC(C)C)C(N)=O [Peptide 13] (H-LK[dL]LH[dK]L[dL][dK]HLL[dK]LL-NH2)
- Lethal Concentration (LC50) ([1]; pH 6, 24 h): 12.5 µg/mL
- Lethal Concentration (LC50) ([1]; pH 7.4, 24 h): 12.5 µg/mL
- potency compared with diastereomer 1 ([2]; CL1, pH 6.0): similarly or significantly more potent
- Lethal Concentration (LC50) ([2]; CL1, pH 6, 24 h): 6.25 µg/mL
- Lethal Concentration (LC50) ([2]; CL1, pH 7.4, 24 h): 6.25 µg/mL
- Lethal Concentration (LC50) ([3]; DU145, pH 6, 24 h): 18.7 µg/mL
- Lethal Concentration (LC50) ([3]; DU145, pH 7.4, 24 h): 25 µg/mL
- lymph node metastasis fluorescence intensity ([4]; systemic administration): significant reduction
- histology of lungs and lymph nodes: population by cancer cells ([4]; vs control untreated mice, P<0.005): much less densely populated
- Lethal Concentration (LC50) ([5]; 22RV1, pH 6, 24 h): 12.5 µg/mL
- Lethal Concentration (LC50) ([5]; 22RV1, pH 7.4, 24 h): 12.5 µg/mL
- Lethal Concentration (LC50) [6]: 25 µg/mL
- CC50 at 24 h ([7]; NIH3T3, pH 6, 24 h): 19 µg/mL (≈ 10.4 µM)
- CC50 at 24 h ([7]; NIH3T3, pH 7.4, 24 h): 50 µg/mL (≈ 27.4 µM)
